According to patent US20060199870A1, “Method for producing aqueous ortho-phthalaldehyde solutions” (DSM Fine Chemicals Austria Nfg GmbH & Co KG, priority 2005, published 2006):

Experiment: Solubility / attainable concentration of OPA in aqueous solution
Format: physicochemical
Source text: According to the invention, sufficient acetal is introduced into water and dissolved, so that after acidifying, a 0.025 to 9% strength by weight aqueous OPA solution is obtained. Preference is given to 0.05 to 5% strength by weight solutions, particularly preferably 0.5 to 2% strength by weight solutions.
It is advantageous in the inventive method that, compared with the use of OPA itself, more highly concentrated solutions (9% compared with 5%) can be produced, since the alcohol eliminated by the acidification favors the dissolution of the OPA formed.
In addition, if desired, the alcohol being eliminated can be removed from the solution by distilling it off, as a result of which, however, the solubility is reduced again to 5%.

O=Cc1ccccc1C=O [OPA, ortho-phthalaldehyde]
solubility (aqueous solution after the eliminated alcohol is distilled off): 5% | attainable concentration of aqueous OPA solution (solution produced from OPA acetal, alcohol eliminated by the acidification remains in solution): 9% | attainable concentration of aqueous OPA solution (use of OPA itself dissolved in water): 5%
